Test results from US20260306642A1, “STAT DEGRADERS AND USES THEREOF” (Recludix Pharma, Inc., priority 2023, published 2026).
pIC50: −log10 of the molar value.

Legend:
[1] = target: T1, pSTAT6 (Homo sapiens, UniProt P42226); test: MSD-pSTAT-PBMC Assay (pSTAT6, IL-4 stimulated); assay type: cell-based; settings: compound 3 hrs, then 1 ng/mL IL-4 10 min, pY641-STAT6, read-out: pSTAT6 IC50
T1 sequence (P42226 1-847): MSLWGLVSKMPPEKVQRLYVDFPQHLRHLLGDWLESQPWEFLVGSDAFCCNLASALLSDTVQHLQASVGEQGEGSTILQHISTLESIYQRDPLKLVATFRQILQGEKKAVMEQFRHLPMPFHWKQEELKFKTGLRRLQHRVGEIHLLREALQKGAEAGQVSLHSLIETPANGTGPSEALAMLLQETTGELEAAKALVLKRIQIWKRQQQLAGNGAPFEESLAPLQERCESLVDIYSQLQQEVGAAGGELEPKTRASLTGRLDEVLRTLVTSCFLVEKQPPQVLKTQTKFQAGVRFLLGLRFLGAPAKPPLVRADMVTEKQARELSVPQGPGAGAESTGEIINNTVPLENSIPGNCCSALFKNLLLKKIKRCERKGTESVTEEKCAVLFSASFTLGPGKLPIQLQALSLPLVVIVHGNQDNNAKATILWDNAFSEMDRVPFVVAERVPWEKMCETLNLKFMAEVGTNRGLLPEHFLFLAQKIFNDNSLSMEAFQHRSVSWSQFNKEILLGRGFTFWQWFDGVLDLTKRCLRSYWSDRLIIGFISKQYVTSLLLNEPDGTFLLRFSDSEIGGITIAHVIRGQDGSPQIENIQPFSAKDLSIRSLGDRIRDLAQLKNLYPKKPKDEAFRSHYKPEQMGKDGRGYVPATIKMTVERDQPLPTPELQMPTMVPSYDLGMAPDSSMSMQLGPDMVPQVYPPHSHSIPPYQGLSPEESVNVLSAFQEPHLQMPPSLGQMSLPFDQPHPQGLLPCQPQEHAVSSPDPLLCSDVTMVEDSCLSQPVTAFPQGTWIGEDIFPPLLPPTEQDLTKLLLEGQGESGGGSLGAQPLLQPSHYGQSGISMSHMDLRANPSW
From the text: Cryopreserved Peripheral Blood Mononuclear Cells (PBMC) are from AllCells. Recombinant Human IL-4 and IL-6 are from Peprotech. Mouse monoclonal anti-STAT3 antibody, rabbit monoclonal anti-pY705-STAT3 antibody, rabbit monoclonal Anti-pY641-STAT6 antibody, and lysis buffer are from Cell Signaling Technology (CST). Mouse monoclonal anti-STAT6 antibody is from BioLegend. Assay plates, blocker, and anti-rabbit secondary antibody are from Meso Scale Discovery (MSD).
Cryopreserved PBMCs were thawed out and allowed to recover overnight in IMDM+10% heat-inactivated FBS prior to plating 50,000 (STAT3) or 25,000 (STAT6) cells per well in 96-well U-bottom tissue culture plates. Cells were treated with compound for 3 hrs, then stimulated with 10 ng/mL IL-6 (STAT3) or 1 ng/mL IL-4 (STAT6) for 10 min. Cells were then spun down and washed with ice-cold PBS prior to lysing the cell pellet with 1× lysis buffer (CST) with 1× HALT protease and phosphatase inhibitor cocktail (Thermo). Lysates were transferred to and incubated overnight at 4° C. with shaking in QuickPlex 96-well high bind assay plates (MSD) pre-coated overnight with 30 μL per well of […] mouse monoclonal anti-STAT3 antibody (STAT3) or 2 μg/mL mouse monoclonal anti-STAT6 antibody (STAT6) in 1× PBS, and pre-blocked for 1 hour with 3% Blocker-A (MSD). Captured protein in the assay plates were then washed and probed with 25 μL per well of […] rabbit monoclonal anti-pY705-STAT3 antibody (STAT3) or […] rabbit monoclonal Anti-pY641-STAT6 antibody (STAT6) in 1% Blocker-A for 1 hour at room temperature with shaking, then washed and probed with 25 ul per well of 1 ug/ml Sulfo-TAG Labeled Goat Anti-Rabbit Antibody (MSD) in 1% Blocker-A for 1 hour at room temperature with shaking. Assay plates were then washed and 150 μL of 1× Read Buffer-T (MSD) was added to each well prior to reading on an SQ120 MSD Plate Reader. Assay signal from each sample was subtracted by the signal from unstimulated control wells and normalized to DMSO control wells. IC50 values were calculated using Graph Pad Prism Dose-Response Nonlinear Regression with variable slope. For both pSTAT3 and pSTAT6 A=≤100 nM; B=>100-1000 nM; C=>1000-3000 nM; and D=>3 μM.

[2] = target: T2, STAT6 (Homo sapiens, UniProt P42226); test: STAT6 Fluorescence Polarization (FP) Assay; assay type: binding
T2 construct: Recombinant STAT6 protein (STAT6(W123-T658))
T2 sequence (P42226 123-658): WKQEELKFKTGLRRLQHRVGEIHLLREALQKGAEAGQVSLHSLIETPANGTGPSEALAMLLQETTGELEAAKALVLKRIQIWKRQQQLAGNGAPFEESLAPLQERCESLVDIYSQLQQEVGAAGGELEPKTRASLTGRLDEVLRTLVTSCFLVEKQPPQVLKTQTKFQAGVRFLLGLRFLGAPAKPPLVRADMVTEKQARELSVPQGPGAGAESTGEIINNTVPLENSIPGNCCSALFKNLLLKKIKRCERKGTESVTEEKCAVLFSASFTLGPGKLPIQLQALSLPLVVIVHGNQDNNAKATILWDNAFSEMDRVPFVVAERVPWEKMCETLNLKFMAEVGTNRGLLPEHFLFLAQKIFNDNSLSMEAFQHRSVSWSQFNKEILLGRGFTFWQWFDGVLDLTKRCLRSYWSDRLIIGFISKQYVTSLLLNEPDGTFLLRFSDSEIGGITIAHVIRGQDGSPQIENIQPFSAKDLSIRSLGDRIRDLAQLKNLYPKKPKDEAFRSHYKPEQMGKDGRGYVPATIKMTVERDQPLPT
Summary of the method: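 STAT6(W123-T658) at 250 nM with 2 nM 5-FAM-ApYKPFQDLI-NH2 probe in HEPES pH 7.4, 50 mM NaCl, EDTA, Tween 20, DTT, 1% DMSO. FP read after 45 min at room temperature; IC50 from nonlinear fit of mP versus log concentration.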

[3] = target: T3, STAT3 (Homo sapiens, UniProt P40763); test: STAT3 Fluorescence Polarization (FP) Assay; assay type: binding
T3 construct: Recombinant STAT3 protein (STAT3(G127-I722))
T3 sequence (P40763 127-722): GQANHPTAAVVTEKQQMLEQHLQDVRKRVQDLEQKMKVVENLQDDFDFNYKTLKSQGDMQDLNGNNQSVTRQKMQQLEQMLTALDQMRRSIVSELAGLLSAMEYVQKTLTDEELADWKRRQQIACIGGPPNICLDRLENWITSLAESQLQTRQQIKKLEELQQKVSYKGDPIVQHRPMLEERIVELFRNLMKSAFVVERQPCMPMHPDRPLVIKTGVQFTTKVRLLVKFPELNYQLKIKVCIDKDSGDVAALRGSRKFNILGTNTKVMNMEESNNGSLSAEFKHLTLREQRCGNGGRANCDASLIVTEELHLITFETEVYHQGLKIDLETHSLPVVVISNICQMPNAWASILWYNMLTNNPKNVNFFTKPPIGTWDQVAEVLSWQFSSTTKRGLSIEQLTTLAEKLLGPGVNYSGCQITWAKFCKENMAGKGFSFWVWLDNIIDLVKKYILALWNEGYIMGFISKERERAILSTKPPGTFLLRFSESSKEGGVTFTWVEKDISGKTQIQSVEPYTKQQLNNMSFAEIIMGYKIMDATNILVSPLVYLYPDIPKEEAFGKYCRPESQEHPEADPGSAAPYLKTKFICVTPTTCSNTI
Summary of the method: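 Recombinant STAT3 (G127–I722, 25 nM) was mixed with 2 nM 5-FAM-GpYLPQTV-NH2 probe in HEPES pH 7.4 buffer with 1% DMSO and serially diluted compound. Fluorescence polarization was read after 45 min at room temperature. IC50 came from nonlinear regression of mP versus log concentration and was binned A (≤100 nM), B (>100–1000 nM), C (>1–10 μM) or D (>10 μM).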

Structure (SMILES) | pIC50 [1] | pIC50 [2] | pIC50 [3]
O=C1CCC(N2Cc3c(C#CCCCCCCn4ccc([C@@H]5CN(C(=O)[C@@H]6CC[C@@H]7CCCC[C@H](NC(=O)c8cc9cc(C(F)(F)P(=O)(O)O)ccc9s8)C(=O)N76)C6(CC6)C5)cc4=O)cccc3C2=O)C(=O)N1 (stereo partly drawn) [Compound 5, ((2-(((3S,6S,10aS)-3-((6R)-6-(1-(8-(2-(2,6-dioxopiperidin-3-yl)-1-oxoisoindolin-4-yl)oct-7-yn-1-yl)-2-oxo-1,2-dihydropyridin-4-yl)-4-azaspiro[2.4]heptane-4-carbonyl)-5 oxodecahydropyrrolo[1,2-a]azocin-6-yl)carbamoyl)benzo[b]thiophen-5-yl)difluoromethyl)phosphonic acid] | 6.00 to 7.00 | 5.52 to 6.52 | 5.00 to 6.00
O=C1CCC(n2c(=O)[nH]c3cc(N4CCC(n5ccc([C@@H]6CN(C(=O)[C@@H]7CC[C@@H]8CCCC[C@H](NC(=O)c9cc%10cc(C(F)(F)P(=O)(O)O)ccc%10s9)C(=O)N87)C7(CC7)C6)cc5=O)CC4)ccc32)C(=O)N1 (stereo partly drawn) [Compound 24, ((2-(((3S,6S,10aS)-3-((6R)-6-(1-(1-(1-(2,6-dioxopiperidin-3-yl)-2-oxo-2,3-dihydro-1H-benzo[d]imidazol-5-yl)piperidin-4-yl)-2-oxo-1,2-dihydropyridin-4-yl)-4-azaspiro[2.4]heptane-4-carbonyl)-5-oxodecahydropyrrolo[1,2-a]azocin-6-yl)carbamoyl)benzo[b]thiophen-5-yl)difluoromethyl)phosphonic acid] | < 5.52 | 5.52 to 6.52 | 5.00 to 6.00
